Reference: patent US20100303786A1, “Stabilisation of Liquid-Formulated Factor VII(A) Polypeptides by Aldehyde-Containing Compounds” (Novo Nordisk Health Care AG, priority 2007, published 2010)
Entries after “also recorded” stand apart in the source; their conditions may differ.

Tests used:
40K-PEG-rFVIIa [1] = molecular target: T1, 40K-PEG-rFVIIa (Homo sapiens, UniProt P08709); assay: Stability of liquid 40K-PEG-rFVIIa formulations: heavy chain fragmentation (Assay 5); assay type: physicochemical; settings: 2 months at 5° C.; 28 mM benzaldehyde or 180 mM 5-formyl-4-methylimidazole
T1 construct: has been cleaved at the peptide bond preceding position 153
T1 sequence (P08709 213-466 limits assumed): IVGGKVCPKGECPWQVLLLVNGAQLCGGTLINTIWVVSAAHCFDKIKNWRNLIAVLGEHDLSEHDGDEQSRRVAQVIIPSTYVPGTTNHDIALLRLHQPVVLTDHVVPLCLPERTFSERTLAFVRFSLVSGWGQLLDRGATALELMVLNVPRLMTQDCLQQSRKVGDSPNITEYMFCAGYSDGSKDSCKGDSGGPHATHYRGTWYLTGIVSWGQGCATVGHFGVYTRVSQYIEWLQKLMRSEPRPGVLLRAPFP
T1 sequence (P08709 61-212 limits assumed): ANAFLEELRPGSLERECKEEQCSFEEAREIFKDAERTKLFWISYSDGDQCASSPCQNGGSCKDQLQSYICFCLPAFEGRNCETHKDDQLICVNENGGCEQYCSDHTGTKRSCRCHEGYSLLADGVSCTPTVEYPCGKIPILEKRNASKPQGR
Description: For the purpose of determining the content of heavy chain fragmentation products of 40K-PEG-rFVIIa, a reverse phase HPLC was run on a ACE 3 μm C4, 300 Å, 4.6×100 mm column (Advanced Chromatography Technologies, part. no. ACE-213-1046). Column temperature: 60° C. A-buffer: 0.05% v/v trifluoracetic acid. B-buffer: 0.06% v/v trifluoracetic acid, 80% v/v acetonitrile. Denaturation buffer: 6M Guanidine hydrochloride, 50 mM Tris, 5 mM calcium chloride, pH 7,5. Samples are prepared from 50 μl analysis sample+50 μl denaturation buffer+5 μl DTT+1 μl acetic acid and incubated at 60° C. for 15 min.
The column was eluted with a linear gradient from 35 to 80% B in 30 minutes. Flow rate: 0.7 mL/min. Detection: 214 nm. Load: 25 μg FVIIa. The initial content of heavy chain degradation products is subtracted from the measured content of heavy chain degradation product, i.e. the initial content of heavy chain degradation products is set to 0%. The content of heavy chain degradation products at the time x is then calculated as: […]
wherein HCDP(x) is the measured content of heavy chain degradation products at the time x, HCDP(0) is the measured initial content of heavy chain degradation products, and FVII(x) is the content of the intact Factor VII polypeptide at the time x.
A stability experiment with liquid formulations containing 40K-PEG-rFVIIa was performed. […]

40K-PEG-rFVIIa [2] = molecular target: T1, 40K-PEG-rFVIIa; assay: Stability of liquid 40K-PEG-rFVIIa formulations: clot activity (one-stage coagulation assay, Assay 3); assay type: biochemical; settings: 2 months at 5° C.; 28 mM benzaldehyde or 180 mM 5-formyl-4-methylimidazole
Description: The clot assay is used to assess the ability of Factor VIIa polypeptides to make blood clot. For this purpose, the sample to be tested is diluted in 50 mM PIPES-buffer (pH 7.5), 0.1% BSA and 40 μl is incubated with 40 μl of Factor VII deficient plasma and 80 μl of human recombinant tissue factor containing 10 mM Ca2+ and synthetic phospholipids. Coagulation times (clotting times) are measured and compared to a standard curve using a reference standard in a parallel line assay.
A stability experiment with liquid formulations containing 40K-PEG-rFVIIa was performed. The formulations had the following compositions: […]
The PEG moiety is excluded in the specification of 40K-PEG-rFVIIa concentration. pH was 6.5 in all samples. At 0, ½, 1 and 2 months, 70 μl aliquots were taken from the stability sample, diluted to 1 mg/ml 40K-PEG-rFVIIa and assayed for clot activity (Δactivity), FVIIa polypeptide fragmentation (Δfragment), dimer/2-PEG, and high molecular weight protein.

FVIIa = molecular target: T2, FVIIa (Homo sapiens, UniProt P08709); assay: Thermo-fluorescence (thermal shift) measurement of FVIIa denaturation temperature in the presence of aldehydes; assay type: physicochemical; settings: 25 mM imidazole, pH 6.5, 20 mM CaCl2, 60 mg/ml sucrose; various aldehyde concentrations; FIG. 2
T2 construct: has been cleaved at the peptide bond preceding position 153
T2 sequence (P08709 213-466 limits assumed): T1 sequence (P08709 213-466 limits assumed)
T2 sequence (P08709 61-212 limits assumed): T1 sequence (P08709 61-212 limits assumed)
Description: The effect of aldehydes on Factor VIIa amidolytic activity is shown in an in vitro hydrolysis assay (20 mM imidazole, pH 6.5, 20 mM CaCl2), the results of which are illustrated in FIG. 1. A clear inhibition of amidolytic activity is observed. However, the apparent inhibition could be due to FVIIa denaturation. In order to address this issue, the denaturation temperature of FVIIa was measured in the presence of aldehydes. The measurement was performed by thermo-fluorescence, essentially as the thermal shift assay described by Lo et al., Analytical Biochemistry 332, 153-159 (2004). The denaturation temperature was determined as the point of maximum slope of the fluorescence intensity curve. The denaturation temperature is shown in FIG. 2 at various concentrations of aldehydes (25 mM imidazole, pH 6.5, 20 mM CaCl2, 60 mg/ml sucrose). […] Therefore, the inhibitory activity of these three compounds may be caused by denaturation.

rFVIIa = molecular target: T3, rFVIIa (Homo sapiens, UniProt P08709); assay: Stability experiment: heavy chain fragmentation of rFVIIa after 4 weeks in benzaldehyde solutions; assay type: physicochemical; settings: 4 weeks at 5° C.; 12.5 mg/ml rFVIIa, pH 6.5; 0, 10, 20, 40 and 80 mM benzaldehyde; FIG. 5
T3 construct: has been cleaved at the peptide bond preceding position 153
T3 sequence (P08709 213-466 limits assumed): T1 sequence (P08709 213-466 limits assumed)
T3 sequence (P08709 61-212 limits assumed): T1 sequence (P08709 61-212 limits assumed)
Description: In the below working examples the content of heavy chain fragmentation products of Factor VIIa is determined by RP-HPLC as described in the following:
Reverse phase HPLC was run on a proprietary 4.5×250 mm butyl-bonded silica column with a particle size of 5 μm and pore size 300 Å. Column temperature: 70° C. A-buffer: 0.1% v/v trifluoracetic acid. B-buffer: 0.09% v/v trifluoracetic acid, 80% v/v acetonitrile. The column was eluted with a linear gradient from X to (X+13) % B in 30 minutes. X was adjusted so that FVIIa elutes with a retention time of approximately 26 minutes. Flow rate: 1.0 mL/min. Detection: 214 nm. Load: 25 μg FVIIa.
A stability experiment with liquid formulations containing FVIIa was performed. Conditions in all samples were 10 mM His, pH 6.5, 20 mM CaCl2, 6% sucrose, 0.5 mg/ml methionine, 12.5 mg/ml rFVIIa. 50 μl solutions with 0, 10, 20, 40 and 80 mM benzaldehyde in 500 μl cryotubes were prepared, incubated at 5° C. for 4 weeks and then frozen to −80° C. In addition, a reference sample without benzaldehyde was prepared and immediately frozen to −80° C. For analysis, all samples were thawed, diluted to 1 ml volume in 10 mM histidine, pH 5.5, and analysed for heavy chain fragmentation.

Row | Compound | Fragmentation compared to the reference formulation (40K-PEG-rFVIIa [1]) | Loss of activity / FVIIa polypeptide stability compared to the reference formulation (40K-PEG-rFVIIa [2]) | Effect on Factor VIIa denaturation temperature (melting point) (FVIIa) | Fragmentation as a percentage of the total Factor VIIa content (% fragmented) (rFVIIa)
1 | Cc1nc[nH]c1C=O [5-formyl-4-methylimidazol, 5-formyl-4-methylimidazole] | very large reduction in fragmentation | very large improvement in FVIIa polypeptide stability | – | –
2 | O=Cc1ccccc1 [benzaldehyde] | small reduction in fragmentation | small reduction in fragmentation and loss of activity | drops significantly at high aldehyde concentration; also recorded: affect the denaturation temperature at high concentrations | decreases as the concentration of benzaldehyde is increased; also recorded: much lower in the presence of benzaldehyde, particularly in concentrations above 10 mM
